Results reported in patent US20240350491A1, “METHODS AND COMPOSITIONS FOR IMMUNE CONTROL THROUGH DICKKOPF-1” (Baylor College of Medicine, priority 2021, published 2024).

How the values were obtained:
Human platelets = experiment: Dkk-1 release from human platelets stimulated overnight at 4° C. or 37° C.; format: cell-based; conditions: overnight at both 4° C. and 37° C.; versus unstimulated platelets
Procedure: To investigate agents driving Dkk-1 release by platelets, human platelets were stimulated with lipopolysaccharide (LPS), thrombin, prothrombin (ProThrom), proteinase of Aspergillus melleus (PAM), or candidalysin (C. Lysin) overnight at 4° C. (FIG. 13A) or 37° C. (FIG. 13B). Unstimulated human platelets served as a control (platelets). Following stimulation, Dkk-1 concentration in the supernatant was quantified.

C57BL/6 mice [1] = experiment: Steroid-resistant AAD models (A. niger ± LPS), fluticasone propionate; format: in vivo; conditions: A. niger conidia ±30 ng LPS; daily treatment
Procedure: As shown in the severe eosinophilic and neutrophilic steroid-resistant AAD models of FIGS. 14A-14B, mice challenged with Aspergillus niger (AN) develop an asthma phenotype, here showing airway hyperresponsiveness (AHR), that is steroid (fluticasone propionate; FP, a commonly used steroid in asthma) resistant. Illustrated in FIG. 14A is an experimental timeline for assessing the effect of daily FP or vehicle (liposome: dilauroylphosphatidylcholine: DLPC) treatment on AHR. AHR was measured as a function of respiratory system resistance (RRS(cmH2O·s·ml^−1)) in C57BL/6 mice challenged intranasally (q.o.d.) with 4×10^5 A. niger (AN) conidia ±30 ng lipopolysaccharide (LPS) (FIG. 14B).

Dkk-1 [2] = molecular target: T1, Dkk-1 (Mus musculus, UniProt O54908); experiment: Fungal experimental asthma due to Aspergillus niger, Dkk-1 antagonist IN or IP; format: in vivo, C57BL/6 mice
T1 construct: endogenous in cells; host or cells: C57BL/6 mice (whole animal; Dkk-1 released from platelets into plasma)
T1 sequence (O54908 32-272): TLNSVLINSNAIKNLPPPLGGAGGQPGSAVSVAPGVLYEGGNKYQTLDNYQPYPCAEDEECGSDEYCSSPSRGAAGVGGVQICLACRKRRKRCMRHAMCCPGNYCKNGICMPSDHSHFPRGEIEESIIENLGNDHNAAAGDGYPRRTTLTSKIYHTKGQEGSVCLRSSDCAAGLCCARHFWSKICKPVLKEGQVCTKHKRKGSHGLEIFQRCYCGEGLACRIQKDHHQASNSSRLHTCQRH
Procedure: C57BL/6 mice (4-6 weeks old) were challenged every second day with 400,000 viable conidia of AN while at the same time receiving a Dkk-1 antagonist (WAY262611) intranasally (IN) or intraperitoneally (IP) for 14 days. Airway hyperresponsiveness as assessed by enhanced increases in respiratory system resistance in response to increasing doses of acetylcholine chloride injected intravenously were determined as compared to PBS control mice (blue line). […] Thus, regardless of the fungus used, either Candida albicans or A. niger as shown herein, Dkk-1 can induce AHR. Statistics: IP versus IN or AN lines: P<0.05.

Dkk-1 [3] = molecular target: T1, Dkk-1; experiment: C. albicans-induced allergic airway disease in mice given Dkk-1 inhibitor intraperitoneally; format: in vivo, C57BL/6 mice
Procedure: The relevance of Dkk-1 to allergic airway disease induced by airway mycosis is unknown. Mice challenged with C. albicans were administered a Dkk-1 inhibitor (WAY 262611) previously shown to block this peptide in vivo (Chae et al., 2016b) (FIG. 2G).
(§1) C57BL/6 mice were administered 1×10^5 viable cells of C. albicans intranasally every other day for 8 challenges as shown in FIG. 1 (Porter et al., 2011a). Alternatively, C57BL/6 mice were given 4, 8, and 16 μmol candidalysin or 16 μmol of scrambled peptide control in PBS every other day for 8 challenges as shown in FIG. 8. Dkk-1 inhibitor (Chae et al., 2016a) (WAY262611, cat: 317700, Millipore Sigma, Burlington, MA. Dose: 10 or 20 μg/kg) and recombinant mouse Dkk-1 (5897-DK-010, R&D systems, Minneapolis, MN. Dose: 5 μg/kg) were given intraperitoneally at the same time and fungal challenge. Mice were analyzed 24 h after the final challenge for allergic airway disease endpoints.
(§2) Bronchial constriction in response to increasing dose of acetylcholine (Ach) injected intravenously, bronchoalveolar lavage fluid (BALF) cell differential counting, Dkk-1 quantitation from plasma, ELISA analysis of whole lung, flow cytometry analysis of Th cells and lung histopathology were assessed in response to C. albicans challenge as previously described (Porter et al., 2011a). Briefly, mice were anesthetized with etomidate and intravenously injected with acetylcholine via tail vein to assess AHR as quantified by measuring respiratory system resistance (RRS). Total BALF cells were collected by lavaging whole lung, total cells were enumerated and differential cell counting was performed on modified Giemsa-stained cytospin preparations. Plasma was harvested by retro-orbital bleeding and anti-coagulated by 10% 0.5M EDTA (Thermofisher scientific, Waltham MA). Lungs were harvested and processed as follows. Lungs were cut into small pieces and incubated in digestion buffer (2 mg/ml collagenase (#LS004177, Worthington), 0.04 mg/ml DNAse (#10104159001, Sigma) 1, 20% FBS in HBSS) for 1 h at 37° C. after which they were deaggregated by pressing through a […] nylon mesh and centrifuged at 400×g for 5 minutes at 4° C. Supernatants were discarded, and 1.5 mL of ACK (Thermofisher scientific, Waltham MA) was added and incubated for 3 min at room temperature for erythrocyte lysis. ACK was then neutralized with 7.5 mL of complete RPMI-1640 (Corning, NY), with 10% FBS and 1% Pen Strep, Gibco, Waltham MA). The resulting leukocyte preparations were centrifuged and prepared for flow cytometry analysis or ELISA.
Cell culture supernatants were analyzed for cytokines by standard ELISA after comparison to recombinant standard. IL-4 (Clone 11B11 and 554390 BD Biosciences, San Jose, CA), IL-5, IL-13 (DY405, DY413, R&D systems, Minneapolis, MN), IL-17 (BMS2017, Thermofisher scientific, Waltham MA), IFN-7 (555142, BD Biosciences, San Jose, CA), IL-1, IL-6, TNF (ab210895, ab213749 and ab212073, Abcam, Cambridge MA) were used as antibodies pairs and capture signals were amplified using Streptavidin-horseradish peroxidase conjugate (51-9002813, BD Biosciences, San Jose, CA). The plate was further developed using TMB substrate solution (N301, Thermofisher scientific, Waltham MA) and detected at the absorbance wavelength of 450 nm.
Total lung cells isolated above were stained with Live/Dead Fix Blue (L34961, Thermofisher scientific, Waltham MA), CD45, CD3, CD4 (103122, 100222, 100412, Biolegend, San Diego, CA). Cells were separated into 3 groups, then permeabilized and fixed using Transcription Factor Buffer Set (562574, BD Biosciences, San Jose, CA), and stained individually for T-bet, GATA3 or RORγt (561265, 560074, 562607, BD Biosciences, San Jose, CA). For megakaryocyte staining, total lung cells were stained with Live/Dead Fix Blue and CD41, CXCR4 (133927, 146507, Biolegend, San Diego, CA), Dkk-1 (BAM1765, R&D systems, Minneapolis, MN) and PE-streptavidin (405203, Biolegend, San Diego, CA). […]

C57BL/6 mice [4] = experiment: Recombinant mouse Dkk-1 i.p. in ece1Δ/Δ C. albicans-challenged mice; format: in vivo
Procedure: To confirm, synthetic mouse Dkk-1 was administered to mice challenged with ece1Δ/Δ C. albicans (FIG. 3A). […] Dkk-1 alone had no effect on any index of allergic airway disease when administered through the intraperitoneal route (data not shown). Thus, in some aspects, Dkk-1 may be an important mediator of lung Th2 cell responses (Chae et al., 2016b), and may be equally important for the generation of Th17 cell responses in the context of airway mycosis. These findings further confirm that Dkk-1 is essential for the control of C. albicans growth in the lung.
as §1, §2

[5] = ece1Δ/Δ C. albicans-challenged mice

## thrombin
Human platelets
  Dkk-1 release by platelets: significantly increased

## CCC(=O)O[C@]1(C(=O)SCF)[C@H](C)C[C@H]2[C@@H]3C[C@H](F)C4=CC(=O)C=C[C@]4(C)[C@@]3(F)[C@@H](O)C[C@@]21C [FP, fluticasone propionate]
C57BL/6 mice [1]
  airway hyperresponsiveness: exacerbate

## NCC1CCN(c2nccc(-c3ccc4ccccc4c3)n2)CC1 [WAY 262611]
Dkk-1 [2]; FIG. 16 legend, route not stated
  airway hyperresponsiveness (AHR) in fungal experimental asthma due to Aspergillus niger: abrogates
Dkk-1 [2]; IP route (systemic), 14 days, P<0.05 versus IN or AN
  AHR induced by AN: abrogates
Dkk-1 [3]; C. albicans-challenged mice
  lung fungal burdens: markedly elevated
Dkk-1 [3]; C. albicans-challenged mice, 10 or 20 μg/kg i.p.
  BALF eosinophilia: most notably reducing
Dkk-1 [3]; C. albicans-challenged mice, 10 or 20 μg/kg i.p., dose-dependent
  BALF inflammatory cell recruitment: progressively reduced
Dkk-1 [3]; C. albicans-challenged mice, ELISA
  secretion of type 2 cytokines (IL-4, IL-5, IL-13) from whole lung: suppression
Dkk-1 [3]; C. albicans-challenged mice, inhibitor 10 or 20 μg/kg i.p., dose-dependent, 24 h after final challenge
  airway hyper-responsiveness: progressively reduced
Dkk-1 [3]; C. albicans-challenged mice, lung, ELISA
  secretion of IL-1β, IL-6 and TNF: not significantly affected
Dkk-1 [3]; C. albicans-challenged mice, whole lung, ELISA
  secretion of IL-17: inhibited
Dkk-1 [3]; flow cytometry, correlated with inhibitor dose
  recruitment to whole lung of GATA3+ Th2 and RORγt+ Th17 cells: decreased recruitment

B1: Dkk-1: recombinant mouse Dkk-1 (5897-DK-010, R&D systems), Wnt pathway antagonist peptide (protein, UniProt O54908 32-272, looked up)
Dickkopf-related protein 1: T1 sequence (O54908 32-272)
C57BL/6 mice [4]; Dkk-1 alone, intraperitoneal route, data not shown
  any index of allergic airway disease: no effect
C57BL/6 mice [4]; [5]
  fungal lung burdens: significantly reduced
  recruitment of inflammatory cells, especially eosinophils, to the airways: markedly enhanced
  recruitment to lung of GATA3+ Th2 and RORγt+ Th17 cells: markedly increase
  secretion of innate pro-inflammatory cytokines: did not influence
  secretion of lung Th2 cytokines, especially IL-4, but also IL-17: markedly enhanced
C57BL/6 mice [4]; ece1Δ/Δ C. albicans-challenged mice, 5 μg/kg i.p.
  airway hyper-responsiveness: significantly enhanced
